# “Also recorded” adds a separate entry of the source. Where two headings read alike, the source gives them in different places.
# What was measured:
# glucosidase = experiment: Glucosidase inhibitory activity; assay type: biochemical
# [1] = test system: bovine viral diarrhea virus (BVDV); experiment: BVDV antiviral activity in tissue cultures of infected MDBK cells; assay type: cell-based
# From the text: The IC50 for 6-O-nonyl-deoxynojirimycin, for example, bovine viral diarrhea virus (BVDV), in tissue cultures of BVDV infected MDBK cells, a surrogate of hepatitis C virus is 3 micro-molar.
# HBV [2] = conditions: from Antimicrob Agents Chemother. 2002; 46(12): 4004-4008; cited from earlier work
# 2′,5′ OAS gene = experiment: Induction of 2′,5′ OAS genes in Hep G2 cells by R/T PCR and Southern blot-R/T PCR; conditions: 16 hours; for induction of medium (p69) and small (p40) 2′,5′ OAS genes: R/T PCR
# Method: Hep G2 cells were treated with the indicated doses of A) alpha galactosyl ceramide or with B) N-9-oxadecyl-6-methyl-DGJ (b) for 16 hours and the induction of the medium (p69) and small (p40) isoforms of the […] OAS gene determined by R/T PCR. For each set, actin levels were also monitored as a control for loading. […] C) Southern blot- R/T PCR of RNA from Hep G2 cells treated with the indicated concentration of N-9-oxadecyl-6-methyl-DGJ or with 10^3 iU/mL interferon alpha (2a/2b) for 16 hours. Briefly, limited PCR was performed as described for 5, 10, 15 cycles and the PCR products transferred to nylon membrane before hybridization with a 1377 bp cDNA probe from nucleotides 1 to 1377 from the published OAS-40/46 gene (accession #X02874). Actin controls were performed in the same manner.
# The ability of alpha galactosyl ceramide and N-9-oxadecyl-6-methyl-DGJ to directly induce the innate host defense pathway in tissue culture was determined by analysis of the induction of the 2′-5′ oligoadenylate synthetase genes (2′,5′ OAS) using an RT PCR based methodology.
# Briefly, Hep G2 cells were incubated with either alpha galactose ceramide or the synthetic glycolipids shown in FIG. 1 for the desired length of time and the total RNA harvested using Tri-reagent as per manufactures directions (Gibco-BRL, Rockville, Md., USA). RNA samples were further purified using the Ambion DNA™ free kit, (Ambion, Inc., Austin, Tex., USA) before reverse transcriptase (RT) PCR with the PCR conditions and primers exactly as reported in the literature. PCR was performed in the absence of (RT) for 50 cycles to ensure no DNA contamination. Dilution experiments were used to ensure that PCR was within the linear range of the assay. Southern blot-R/T PCR of RNA from Hep G2 cells treated with the indicated concentration of N-9-oxadecyl-6-methyl-DGJ or with interferon alpha (2a/2b) for 16 hours was also performed to allow for quantification of induction. Briefly, limited PCR was performed as described above for 5, 10, 15 cycles and the PCR products transferred to nylon membrane. Hybridization was carried out using a 1377 bp cDNA probe from nucleotides I to 1377 from the published OAS40/46 gene (accession #X02874). OAS-40/46 specific bands were identified and quantified by phosphor image analysis [Bio-Rad, Hercules, Calif.].
# [3] = test system: HBsAg, core antigen, HBV polymerase; experiment: Effect on HBsAg and core antigen production or secretion and HBV polymerase activity; assay type: cell-based, hepatitis B virus; conditions: at concentrations that were highly anti-viral
# From the text: Both alpha galactosyl ceramide and the “alkovirs”, described herein, have anti-hepatitis B virus activity (FIG. 2).
# This indicates both that the compounds were both well tolerated at these concentrations and that the anti-viral activity cannot be explained by a direct effect upon the synthesis of viral products but rather through the activation of a cellular defense mechanism.
# HBV [4] = experiment: Secretion of enveloped HBV DNA into culture medium of Hep G2 2.2.15 cells; assay type: cell-based, hepatitis B virus; conditions: for IC50: Hep G2 2.2.15 cells, 3 days, read-out: IC50 (anti-viral, HBV); for secretion of enveloped HBV (HBV rc DNA in culture medium): Hep G2 2.2.15, 3 days, alpha galactosyl ceramide 0.1-100 nM, N-9-oxadecyl-6-methyl-DGJ 0.8-25 μM, interferon alpha 10^3 iU/mL
# HCV replicon = experiment: HCV subgenomic replicon RNA level in 9-13 cells (Northern blot); assay type: cell-based, hepatitis C virus; conditions: 48 hours
# Method: A) Total RNA was isolated, resolved through agarose gels and hybridized to a radioactive probe specific for HCV NS5B. After washing, the blot was and re-probed with radioactive beta-actin specific sequences to control for loading of lanes.
# Beta-actin protein and RNA were used as controls in these experiments.
# 9-13 cells were seeded in T25 flask at 3×10^6 cells. […] Northern blot analysis was done to analyze HCV replicon RNA level.
# Briefly, 2 μg total RNA was electrophoresed through a 1.0% agarose gel containing 2.2 M formaldehyde, transferred to a nylon membrane and immobilized by Lw cross-linking (Stratagene). Hybridization was carried out using an alpha-[^32P]CTP-labeled probe with random primers on a 2 kb NS5B DNA fragment in a quick hybridization solution (Amersham Bioscience, Piscataway, N.J.) for 16 h at 65° C. The membranes were washed once in 2×SSC/0.1% SDS for 30 min at room temperature and twice in 0.1×SSC/0.1% SDS for 30 min at 65° C.
# Hep G2 2.2.15 cells = experiment: MTT toxicity test; assay type: cell-based
# Method: A) Alpha galactosyl ceramide inhibits HBV in vitro. […] Briefly, Hep G2 2.2.15 cells, which secrete hepatitis B virus, were either left untreated or treated with 10^3 iU/mL of interferon alpha (2a/2b) or 0.1 nM to 100 nM of alpha galactosyl ceramide for three days and the amount of HBV specific DNA detected in the culture medium using a method which discriminates between enveloped and non enveloped viral particles. The HBV rc DNA, which decreases with both interferon and alpha galactose ceramide treatment is indicated. […] Hep G2 2.2.15 cells were left untreated or treated with varying doses of the synthetic glycolipid N-9-oxadecyl-6-methyl-DGJ (0.8 μM to 25 μM) for 3 days and the level of HBV secreted into the culture medium detected as before. […] The HBV rc DNA, which decreases with N-9-oxadecyl-6-methyl-DGJ, interferon, and alpha galactosyl ceramide treatment is indicated. C-D) Cells treated with alpha-galactosyl ceramide or the synthetic glycolipid N-9-oxadecyl-6-methyl-DGJ were tested for viability using the standard MTT toxicity test. For panel C: X-axis: From left to right: Untreated cells; Alpha galactosyl ceramide at 10 μM, 5 μM, 2.5 μM, 1 μM, 0.5 μM, 0.1 μM. Y-axis, percent viability as compared to untreated group. For Panel D: X-axis: From left to right: Untreated cells; N-9-oxadecyl-6-methyl-DGJ at 2000 μM, 800 μM. 400 μM, 200 μM, 100 μM, 10 μm. Y-axis, percent viability as compared to untreated group.
# Toxicity was determined by mitochondrial toxicity testing (MTT) of cells that had been exposed to compounds in a manner similar to the anti-viral assays except cells were treated in 24 well trays. Briefly, Hep G2 2.2.15 cells were treated with drug as indicated in the figure legends for 3 days, the media removed and replaced with 100 μl of a 10 mg/ml solution of tetrazolium bromide [[3-[4,5-dimethylthiazol-2-yl]-2,5-diphenyltetrazolium bromide, Sigma Chemicals] for one hour at 37° C. Addition of 100-200 μl of dimethylsulfoxide (DMSO) led to color development. Supernatants were removed and placed in a 96 well tray for analysis. OD values were read at 590 nm.
molecule,measurement,setting,value
CCCCCCCCCOCC1NCC(O)C(O)C1O (centres unmarked) [6-O-nonyl-deoxynojirimycin],glucosidase inhibitory activity,glucosidase,no glucosidase inhibitory activity
same,IC50,"[1]; BVDV infected MDBK cells, surrogate of hepatitis C virus, read-out: IC50 against BVDV",3 µM
same,antiviral activity,"[1]; virus not named at b41, BVDV assumed",retains antiviral activity
CCOCCCCCCN1CC(O)C(O)C(O)C1C(C)O (centres unmarked) [N-7-oxanonyl-6-methyl-DGJ],anti-viral activity against hepatitis B virus,HBV [2],no anti-viral activity against hepatitis B virus; also recorded: limited anti viral activity against HBV
same,"induction of medium (p69) and small (p40) 2′,5′ OAS genes","2′,5′ OAS gene","did not detectably induce 2′,5′ OAS gene expression"
COCCCCCCCCN1CC(O)C(O)C(O)C1C(C)O (centres unmarked) [N-9-oxadecyl-6-methyl-DGJ],"effect upon HBsAg production or secretion, core antigen production or secretion or HBV polymerase activity",[3],Neither Alpha Galactosyl Ceramide or N-9-oxadecyl-6-methyl-DGJ had any Detectable Effect
same,IC50,HBV [4],~1 µM
same,secretion of enveloped HBV (HBV rc DNA in culture medium),HBV [4],exerted anti-viral activity at varying doses
same,IC50,"HCV replicon; 9-13 cells, three separate experiments, read-out: IC50 for reduction of HCV RNA",1.5 µM
same,"fold induction of the 2′,5′ OAS gene","2′,5′ OAS gene; 70 μM, Southern blot-R/T PCR",20 fold
same,"induction of medium (p69) and small (p40) 2′,5′ OAS genes","2′,5′ OAS gene","induced only the small (p40) 2′,5′ OAS gene expression"
same,"fold increase in 2′,5′ OAS gene expression","2′,5′ OAS gene; lower concentrations (below 70 μM), dose dependent",2-15 fold
same,CC50,Hep G2 2.2.15 cells,> 2000 µM
same,toxicity,Hep G2 2.2.15 cells,little or no toxicity
"CCCCCCCCCCCCCCCCCCCCCCCCCC(=O)N[C@@H](CO[C@H]1O[C@H](CO)[C@H](O)[C@H](O)[C@H]1O)[C@H](O)[C@H](O)CCCCCCCCCCCCCC [alpha galactosyl ceramide, reference compound]","effect upon HBsAg production or secretion, core antigen production or secretion or HBV polymerase activity",[3],Neither Alpha Galactosyl Ceramide or N-9-oxadecyl-6-methyl-DGJ had any Detectable Effect
same,IC50,HBV [4],~0.0004 µM
same,secretion of enveloped HBV (HBV rc DNA in culture medium),HBV [4],inhibited the secretion of enveloped HBV
same,"induction of medium (p69) and small (p40) 2′,5′ OAS genes","2′,5′ OAS gene","induced only the small (p40) 2′,5′ OAS gene expression"
same,toxicity,Hep G2 2.2.15 cells; FIG. 2-3,little or no toxicity
same,CC50,"Hep G2 2.2.15 cells; Hep G2 2.2.15 cells, 3 days, MTT, read-out: CC50",8 µM
interferon alpha,secretion of enveloped HBV (HBV rc DNA in culture medium),HBV [4],inhibits secretion effectively
same,replication of HCV RNA in 9-13 cells,HCV replicon,sensitive to interferon alpha
same,"induction of medium (p69) and small (p40) 2′,5′ OAS genes","2′,5′ OAS gene","potent inducer of both the medium (p69) and small (p40) 2′,5′ OAS genes"
